Measured values reported in patent publication US20060110456A1, “Method for biocidal and/or biostatic treatment and compositions therefor” (NATIONAL UNIVERSITY OF SINGAPORE, priority 2004, published 2006).
Where “and” joins values, the source holds several entries; their conditions need not be identical. Equal entries are not always repeated. Structures can show the parent of a compound that is named as a salt. Where two headings read alike, the source gives them in different places.

How the values were obtained:
[1] = test system: marine bacteria (26 strains); assay: Disk inhibition assay; type: cell-based, marine bacteria isolated from Singapore fouling communities; settings: for zone of inhibition at 25 µg/disc: 25 μg per disc; for zone of inhibition at 50 µg/disc: 50 μg per disc
Experimental: Preparation of Drugs onto Disks for Assay
The non-antibiotic pharmaceuticals of Table 1 were prepared in the following way. A tablet with a known amount of active ingredient (as stated in the product information) was ground in a mortar and pestle and suspended in sterile deionized water to a concentration of 2 mg ml^−1. These samples were sonicated for at least 1 min. […] The two halves of the capsule were separated and the powder released straight into a bottle and suitable amount of water added to make a concentration of 2 mg ml^−1.
As a comparison to the pharmaceuticals, to determine the susceptibility of the bacterial isolates to conventional antibiotics, commercially available antibiotic discs were used. Antibiotic discs (Oxoid® CT series) containing Ampicillin [Amp] (2 and 10 μg), Erythromycin [Ery] (5 and 15 μg), Streptomycin [Str] (10 and 25 μg) and Tetracycline [Tet] (5 and 30 μg) were placed on lawns of the bacterial strains inoculated as described below.
Sterile swabs dipped into the cultures were used to inoculate Marine Agar plates with a bacterial lawn by smearing the culture over the surface. After inoculating the plates, discs with antibiotics, pharmaceuticals or control blanks were placed on each plate. Each concentration of antibiotic or pharmaceutical was tested with three replicates on three separate occasions. After the disks were placed on the agar surface, plates were incubated overnight in the dark at 30° C. After incubation, plates were examined for zones of inhibition or clearing around control and treated disks. The diameter of any zone of clearing or inhibition was measured using Vernier calipers.
The assay was repeated three times with three replicates for each concentration used, each time.

marine bacteria = assay: Growth assay (absorbance, 96-well plates); type: cell-based, marine bacteria isolated from Singapore fouling communities
Experimental: The dried powder was re-suspended in sterile deionized water and made up to 2 mg ml^−1.
The same bacterial strains were used and cultured the same way as in disc inhibition assay. Cells were harvested by centrifugation at 300 rpm for 10 min. The supernatant was discarded and the pellet re-suspended using sterile seawater collected from St. John's island, Singapore. The concentration of bacterial cells was adjusted to an absorbance of approximately 0.6 using a spectrophotometer (Beckman DU530) at wavelength 600 nm.
The growth with response to the pharmaceuticals was assumed to be proportional to the absorbance of the bacteria. […] To each well 25 μl of each drug solution (concentration adjusted to 100 μg ml^−1) were pipetted into three wells followed by 10 μl of broth and 65 μl of sterile seawater. For wells that were to contain bacteria, 60 μl of sterile seawater was used instead. All wells used for growth studies were prepared in triplicate and inoculated with 5 μl of the bacterial suspension. Blanks consisting of the respective volumes of pharmaceutical with Marine Broth and distilled water, if needed, were prepared in triplicate and inoculated with 5 μl of sterile seawater.
The absorbance (A600) of each well was read in a plate reader (Sunrise Tecan Model F039300) immediately (time=0 hours) and after 1, 2, 3, 4, 20, 23 and 28 hours. Plates were incubated overnight inside a moistened airtight container.
Any changes in absorbance were plotted and compared with control. The mean absorbance (mean bac) from the bacteria was obtained by deducting the absorbance values of blank wells (containing seawater and broth only) from that for the control wells (containing bacteria in seawater and broth only). The absorbance arising from the drugs was obtained from the 0 hr reading for wells containing drugs and bacteria, minus the wells with drugs alone (mean “drug”). The growth assays were repeated three times.

[2] = crude rank, best (1) to worst (8)

For `CN1CCN(C(c2ccccc2)c2ccccc2)CC1` [CYZ, Cyclizine hydrochloride], the “Antibiotic activity against marine bacteria” value (shortened to “Antibiotic activity”) ([1]; 25 or 50 μg per disc, in words) was “did not have any appreciable antibiotic activity against marine bacteria” and the “Antibiotic activity” value [1, 2] was 8.
For `CCCCCCCCCC(=O)OC1(c2ccc(Cl)cc2)CCN(CCCC(=O)c2ccc(F)cc2)CC1` [HDL, haloperidol decanoate], the “Antibiotic activity” value ([1]; 25 or 50 μg per disc, in words) was “did not have any appreciable antibiotic activity against marine bacteria” and the “Antibiotic activity” value [1, 2] was 8.
For `CN(C)C(=O)C(CCN1CCC(O)(c2ccc(Cl)cc2)CC1)(c1ccccc1)c1ccccc1` [IMD, Loperamide hydrochloride], the “Antibiotic activity” value ([1]; 25 or 50 μg per disc, in words) was “did not have any appreciable antibiotic activity against marine bacteria” and the “Antibiotic activity” value [1, 2] was 8.
In the case of `CN1CCN(CCCN2c3ccccc3Sc3ccc(Cl)cc32)CC1` [PCZ, prochlorperazine maleate], the “Antibiotic activity” value [1] is reported as “strongest activity”, the “Antibiotic activity” value [1, 2] is reported as 3 and the zone of inhibition at 25 µg/disc ([1]; strain 1 (Rhodovulum)) is reported as < 5 mm. The zone of inhibition at 50 µg/disc ([1]; strain 1 (Rhodovulum)) was < 5 mm, the zone of inhibition at 25 µg/disc ([1]; strain 2 (Erythrobacter)) was < 5 mm and the zone of inhibition at 50 µg/disc ([1]; strain 2 (Erythrobacter)) was < 5 mm. It also gave a zone of inhibition at 25 µg/disc ([1]; strain 3 (Erythrobacter)) of 10 to 19 mm, a zone of inhibition at 50 µg/disc ([1]; strain 3 (Erythrobacter)) of 10 to 19 mm and a zone of inhibition at 25 µg/disc ([1]; strain 4 (Bacillus)) of 10 to 19 mm. For the same compound, the zone of inhibition at 50 µg/disc ([1]; strain 4 (Bacillus)) was 10 to 19 mm, the zone of inhibition at 25 µg/disc ([1]; strain 6 (Vibrio)) was < 5 mm and the zone of inhibition at 50 µg/disc ([1]; strain 6 (Vibrio)) was 5 to 9 mm. The zone of inhibition at 25 µg/disc ([1]; strain 7 (Vibrio)) was < 5 mm, the zone of inhibition at 50 µg/disc ([1]; strain 7 (Vibrio)) was < 5 mm and the zone of inhibition at 25 µg/disc ([1]; strain 8 (Bacillus)) was 10 to 19 mm. It also gave a zone of inhibition at 50 µg/disc ([1]; strain 8 (Bacillus)) of 10 to 19 mm, a zone of inhibition at 25 µg/disc ([1]; strain 9 (Bacillus)) of 10 to 19 mm and a zone of inhibition at 50 µg/disc ([1]; strain 9 (Bacillus)) of 10 to 19 mm. It also gave a zone of inhibition at 25 µg/disc ([1]; strain 10 (Halobacillus)) of 10 to 19 mm, a zone of inhibition at 50 µg/disc ([1]; strain 10 (Halobacillus)) of 10 to 19 mm and a zone of inhibition at 25 µg/disc ([1]; strain 11 (Pseudomonas)) of 10 to 19 mm. The zone of inhibition at 50 µg/disc ([1]; strain 11 (Pseudomonas)) was 10 to 19 mm, the zone of inhibition at 25 µg/disc ([1]; strain 12 (Gordonia)) was 10 to 19 mm and the zone of inhibition at 50 µg/disc ([1]; strain 12 (Gordonia)) was 20 to 29 mm. The zone of inhibition at 25 µg/disc ([1]; strain 13 (Bacillus)) was 10 to 19 mm, the zone of inhibition at 50 µg/disc ([1]; strain 13 (Bacillus)) was 10 to 19 mm and the zone of inhibition at 25 µg/disc ([1]; strain 14 (Vibrio)) was < 5 mm. For the same compound, the zone of inhibition at 50 µg/disc ([1]; strain 14 (Vibrio)) was < 5 mm, the zone of inhibition at 25 µg/disc ([1]; strain 16 (Pseudoalteromonas)) was < 5 mm and the zone of inhibition at 50 µg/disc ([1]; strain 16 (Pseudoalteromonas)) was < 5 mm. It also gave a zone of inhibition at 25 µg/disc ([1]; strain 17 (Gordonia)) of 10 to 19 mm, a zone of inhibition at 50 µg/disc ([1]; strain 17 (Gordonia)) of 20 to 29 mm and a zone of inhibition at 25 µg/disc ([1]; strain 18 (Microbacterium)) of 10 to 19 mm. The zone of inhibition at 50 µg/disc ([1]; strain 18 (Microbacterium)) was 20 to 29 mm, the zone of inhibition at 25 µg/disc ([1]; strain 19 (Erythrobacter)) was 10 to 19 mm and the zone of inhibition at 50 µg/disc ([1]; strain 19 (Erythrobacter)) was 10 to 19 mm. For the same compound, the zone of inhibition at 25 µg/disc ([1]; strain 20) was 10 to 19 mm, the zone of inhibition at 50 µg/disc ([1]; strain 20) was 10 to 19 mm and the zone of inhibition at 25 µg/disc ([1]; strain 21) was < 5 mm. The zone of inhibition at 50 µg/disc ([1]; strain 21) was 10 to 19 mm, the zone of inhibition at 25 µg/disc ([1]; strain 22) was 10 to 19 mm and the zone of inhibition at 50 µg/disc ([1]; strain 22) was 10 to 19 mm. It also gave a zone of inhibition at 25 µg/disc ([1]; strain 24) of 10 to 19 mm, a zone of inhibition at 50 µg/disc ([1]; strain 24) of 10 to 19 mm and a zone of inhibition at 25 µg/disc ([1]; strain 26) of 5 to 9 mm. The zone of inhibition at 50 µg/disc ([1]; strain 26) was 10 to 19 mm, the zone of inhibition at 25 µg/disc ([1]; strain 27) was 5 to 9 mm and the zone of inhibition at 50 µg/disc ([1]; strain 27) was 10 to 19 mm. The zone of inhibition at 25 µg/disc ([1]; strain 28) was 10 to 19 mm, the zone of inhibition at 50 µg/disc ([1]; strain 28) was 10 to 19 mm and the zone of inhibition at 25 µg/disc ([1]; strain 29) was 10 to 19 mm. It also gave a zone of inhibition at 50 µg/disc ([1]; strain 29) of 10 to 19 mm, a zone of inhibition at 25 µg/disc ([1]; strain 30) of 10 to 19 mm and a zone of inhibition at 50 µg/disc ([1]; strain 30) of 10 to 19 mm. For the same compound, the “Number of strains with strongly inhibited growth” value (marine bacteria; 25 μg ml^−1, 25 strains of Table 5) was 11, the “Growth response (absorbance over time)” value (marine bacteria; 25 μg ml−1, strain named in the value) was “slight growth response of bacteria strain 11” and the “Inhibition of bacterial growth” value (marine bacteria; strain 1 (Rhodovulum), 25 μg ml^−1) was 0. The “Inhibition of bacterial growth” value (marine bacteria; strain 2 (Erythrobacter), 25 μg ml^−1) was 0, the “Inhibition of bacterial growth” value (marine bacteria; strain 3 (Erythrobacter), 25 μg ml^−1) was “+++ (+++ denotes little or no growth, p < 0.001)” and the “Inhibition of bacterial growth” value (marine bacteria; strain 4 (Bacillus), 25 μg ml^−1) was “+++ (+++ denotes little or no growth, p < 0.001)”. For the same compound, the “Inhibition of bacterial growth” value (marine bacteria; strain 6 (Vibrio), 25 μg ml^−1) was 0, the “Inhibition of bacterial growth” value (marine bacteria; strain 7 (Vibrio), 25 μg ml^−1) was “+ (+ denotes growth present but inhibited, p < 0.01)” and the “Inhibition of bacterial growth” value (marine bacteria; strain 8 (Bacillus), 25 μg ml^−1) was “+++ (+++ denotes little or no growth, p < 0.001)”. For the same compound, the “Inhibition of bacterial growth” value (marine bacteria; strain 9 (Bacillus), 25 μg ml^−1) was “+++ (+++ denotes little or no growth, p < 0.001)”, the “Inhibition of bacterial growth” value (marine bacteria; strain 10 (Halobacillus), 25 μg ml^−1) was “+++ (+++ denotes little or no growth, p < 0.001)” and the “Inhibition of bacterial growth” value (marine bacteria; strain 11 (Pseudomonas), 25 μg ml^−1) was “+ (+ denotes growth present but inhibited, p < 0.01)”. For the same compound, the “Inhibition of bacterial growth” value (marine bacteria; strain 12 (Gordonia), 25 μg ml^−1) was “+++ (+++ denotes little or no growth, p < 0.001)”, the “Inhibition of bacterial growth” value (marine bacteria; strain 13 (Bacillus), 25 μg ml^−1) was “+++ (+++ denotes little or no growth, p < 0.001)” and the “Inhibition of bacterial growth” value (marine bacteria; strain 14 (Vibrio), 25 μg ml^−1) was 0. For the same compound, the “Inhibition of bacterial growth” value (marine bacteria; strain 16 (Pseudoalteromonas), 25 μg ml^−1) was 0, the “Inhibition of bacterial growth” value (marine bacteria; strain 17 (Gordonia), 25 μg ml^−1) was “+++ (+++ denotes little or no growth, p < 0.001)” and the “Inhibition of bacterial growth” value (marine bacteria; strain 18 (Microbacterium), 25 μg ml^−1) was “+++ (+++ denotes little or no growth, p < 0.001)”. The “Inhibition of bacterial growth” value (marine bacteria; strain 19 (Erythrobacter), 25 μg ml^−1) was “+++ (+++ denotes little or no growth, p < 0.001)”, the “Inhibition of bacterial growth” value (marine bacteria; strain 20, 25 μg ml^−1) was “+ (+ denotes growth present but inhibited, p < 0.01)” and the “Inhibition of bacterial growth” value (marine bacteria; strain 21, 25 μg ml^−1) was 0. The “Inhibition of bacterial growth” value (marine bacteria; strain 24, 25 μg ml^−1) was 0, the “Inhibition of bacterial growth” value (marine bacteria; strain 26, 25 μg ml^−1) was 0 and the “Inhibition of bacterial growth” value (marine bacteria; strain 27, 25 μg ml^−1) was “+ (+ denotes growth present but inhibited, p < 0.01)”. For the same compound, the “Inhibition of bacterial growth” value (marine bacteria; strain 28, 25 μg ml^−1) was 0, the “Inhibition of bacterial growth” value (marine bacteria; strain 29, 25 μg ml^−1) was “+ (+ denotes growth present but inhibited, p < 0.01)” and the “Inhibition of bacterial growth” value (marine bacteria; strain 30, 25 μg ml^−1) was “+++ (+++ denotes little or no growth, p < 0.001)”.
In the case of `Cc1nccn1CC1CCc2c(c3ccccc3n2C)C1=O` (stereo not drawn) [ZFN, ondansetron hydrochloride], the “Antibiotic activity” value ([1]; 25 or 50 μg per disc, in words) is reported as “did not have any appreciable antibiotic activity against marine bacteria” and the “Antibiotic activity” value [1, 2] is reported as 8.
With `Cc1cc2c(s1)Nc1ccccc1N=C2N1CCN(C)CC1` [ZPX, olanzapine] the “Antibiotic activity” value [1] was “did not have any appreciable antibiotic activity against marine bacteria and 8”.
